Measured values from US6362183B1, “Aromatic sulfonyl alpha-hydroxy hydroxamic acid compounds” (G. D. Searle & Company, priority 1997, dated 2002).
pIC50: −log10 of the molar value.

Columns and labels:
Assay in all cases: In vitro metalloprotease inhibition, fluorogenic peptide assay
Type in all cases: biochemical
MMP-2 = target: T1, MMP-2 (Homo sapiens, UniProt P08253); settings: for pIC50: MCA peptide substrate 4 μM, room temperature, pH 7.5
T1 sequence (P08253 110-660): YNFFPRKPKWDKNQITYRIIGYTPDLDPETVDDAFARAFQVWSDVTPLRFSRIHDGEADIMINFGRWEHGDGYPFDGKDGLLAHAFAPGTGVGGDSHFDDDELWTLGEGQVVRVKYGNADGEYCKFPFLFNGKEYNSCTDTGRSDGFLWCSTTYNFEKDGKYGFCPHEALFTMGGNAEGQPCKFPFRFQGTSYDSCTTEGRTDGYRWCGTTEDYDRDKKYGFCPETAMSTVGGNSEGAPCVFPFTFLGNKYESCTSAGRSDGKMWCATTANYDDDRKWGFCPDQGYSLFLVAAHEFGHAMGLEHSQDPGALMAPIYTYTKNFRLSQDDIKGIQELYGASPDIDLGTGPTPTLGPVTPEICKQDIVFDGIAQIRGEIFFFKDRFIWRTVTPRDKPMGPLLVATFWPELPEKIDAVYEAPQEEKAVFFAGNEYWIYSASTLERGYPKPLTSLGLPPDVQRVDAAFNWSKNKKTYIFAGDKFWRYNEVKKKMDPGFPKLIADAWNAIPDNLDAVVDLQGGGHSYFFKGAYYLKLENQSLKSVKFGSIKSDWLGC
Procedure: (§1) Briefly, 4-aminophenylmercuric acetate (APMA) or trypsin activated MMPs were incubated with various concentrations of the inhibitor compound at room temperature for 5 minutes.
(§2) MCA-ProLeuGlyLeuDpaAlaArgNH^2, wherein MCA is methoxycoumarin and Dpa is 3-(2,4-dinitrophenyl)-L-2,3-diaminopropionyl alanine.
(§3) The buffer used for assays contained 100 mM Tris-HCl, 100 mM NaCl, 10 mM CaCl2 and 0.05 percent polyethyleneglycol (23) lauryl ether at a pH value of 7.5.

recombinant human MMP-1 = target: T2, recombinant human MMP-1 (Homo sapiens, UniProt P03956); settings: for pIC50: APMA-activated enzyme, MCA peptide substrate 4 μM, room temperature, pH 7.5; for inhibitory activity against MMP-1 (in words): discussion of Table 51
T2 construct: made in house; host or cells: transfected HT-1080 cells
T2 sequence (P03956 100-469): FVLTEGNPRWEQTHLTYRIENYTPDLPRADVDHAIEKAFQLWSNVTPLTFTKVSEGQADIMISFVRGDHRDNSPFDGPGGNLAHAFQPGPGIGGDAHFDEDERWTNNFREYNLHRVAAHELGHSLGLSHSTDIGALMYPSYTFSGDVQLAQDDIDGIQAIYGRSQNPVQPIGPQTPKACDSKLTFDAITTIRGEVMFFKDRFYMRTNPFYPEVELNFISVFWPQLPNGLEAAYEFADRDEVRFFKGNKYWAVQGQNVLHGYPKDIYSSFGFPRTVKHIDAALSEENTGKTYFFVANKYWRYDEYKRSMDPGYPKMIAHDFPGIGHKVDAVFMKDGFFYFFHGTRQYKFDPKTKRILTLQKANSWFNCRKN
Procedure: as §1
(§4) More specifically, recombinant human MMP-13 and MMP-1 enzymes were prepared in laboratories of the assignee. MMP-13 was expressed in baculovirus as a proenzyme, and purified first over a heparin agarose column and then over a chelating zinc chloride column. The proenzyme was activated by APMA for use in the assay. MMP-1 expressed in transfected HT-1080 cells was provided by Dr. Howard Welgus of Washington University, St. Louis, Mo. The enzyme was also activated using APMA and was then purified over a hydroxamic acid column.
as §2, §3

recombinant human MMP-13 = target: T3, recombinant human MMP-13 (Homo sapiens, UniProt P45452); settings: for pIC50: APMA-activated enzyme, MCA peptide substrate 4 μM, room temperature, pH 7.5; for inhibitory activity against MMP-13 (in words): discussion of Table 51
T3 construct: made in house
Procedure: as §1, §4, §2, §3

Row | pIC50 (MMP-2) | pIC50 (recombinant human MMP-1) | pIC50 (recombinant human MMP-13) | Compound | inhibitory activity against MMP-1 (in words) (recombinant human MMP-1) | inhibitory activity against MMP-13 (in words) (recombinant human MMP-13) | inhibitory activity against MMP-2 (in words) (MMP-2; discussion of Table 51)
1 | 7.83 | 5.10 | 7.52 | COCC(O)(CS(=O)(=O)c1ccc(Oc2ccccc2)cc1)C(=O)NO (stereo not shown) [Example 6, N,2-dihydroxy-2-(methoxymethyl)-3-[(4-phenoxyphenyl)sulfonyl]propanamide] |  |  | 
2 |  | < 5.00 | 6.70 | COc1ccc(S(=O)(=O)CC(O)C(=O)NO)cc1 (stereo not shown) [Example 8, N,2-dihydroxy-3-[(4-methoxyphenyl)sulfonyl]propanamide] | relatively inactive | only slightly better | 
3 | > 10.00 | < 5.00 | 9.30 | CCCCCc1ccc(C(=O)Nc2ccc(S(=O)(=O)CC(C)(O)C(=O)NO)cc2)cc1 (stereo not shown) [Example 14, N-[4-[[2-hydroxy-3-(hydroxyamino)-2-methyl-3-oxopropyl]sulfonyl]phenyl]pentylbenzamide] |  |  | 
4 | 7.06 | < 5.00 | 5.49 | CC(O)(CS(=O)(=O)c1ccc(NC(=O)Nc2ccccc2)cc1)C(=O)NO (stereo not shown) [Example 15, N,2-dihydroxy-2-methyl-3-[[4-[((phenylamino)carbonyl)amino]phenyl]sulfonyl]propanamide] |  |  | 
5 | 6.40 | < 5.00 | 6.05 | CC(C)CC(=O)Nc1ccc(S(=O)(=O)CC(C)(O)C(=O)NO)cc1 (stereo not shown) [Example 17, N-[4-[[2-hydroxy-3-(hydroxyamino)-2-methyl-3-oxopropyl]sulfonyl]phenyl]-3-methylbutanamide] |  |  | 
6 | 9.30 | < 5.00 | 7.89 | CC(O)(CS(=O)(=O)c1ccc(NC(=O)c2ccc(Cl)cc2)cc1)C(=O)NO (stereo not shown) [Example 18] |  |  | 
7 | 5.59 | < 5.00 | 5.00 | Cc1ccccc1NC(=O)Nc1ccc(S(=O)(=O)CC(C)(O)C(=O)NO)cc1 (stereo not shown) [Example 19, N,2-dihydroxy-2-methyl-3-[[4-[[[(2-methylphenyl)amino]carbonyl]amino]phenyl]sulfonyl]propanamide] |  |  | 
8 | 6.52 | < 5.00 | 5.18 | Cc1cccc(NC(=O)Nc2ccc(S(=O)(=O)CC(C)(O)C(=O)NO)cc2)c1 (stereo not shown) [Example 20, N,2-dihydroxy-2-methyl-3-[[4-[[[(3-methylphenyl)amino]carbonyl]amino]phenyl]sulfonyl]propanamide] |  |  | 
9 | 7.47 | < 5.00 | 5.44 | Cc1ccc(NC(=O)Nc2ccc(S(=O)(=O)CC(C)(O)C(=O)NO)cc2)cc1 (stereo not shown) [Example 21, N,2-dihydroxy-2-methyl-3-[[4-[[[(4-methylphenyl)amino]carbonyl]amino]phenyl]sulfonyl]propanamide] |  |  | 
10 | 8.17 | < 5.00 | 6.55 | CC(O)(CS(=O)(=O)c1ccc(NC(=O)c2ccc(Cl)nc2)cc1)C(=O)NO (stereo not shown) [Example 22, 6-chloro-N-(4-[[2-hydroxy-3-(hydroxyamino)-2-methyl-3-oxopropyl]sulfonyl]phenyl]-3-pyridinecarboxamide] |  |  | 
11 | > 10.00 | < 5.00 | > 10.00 | CCCCCCCOc1ccc(C(=O)Nc2ccc(S(=O)(=O)CC(C)(O)C(=O)NO)cc2)cc1 (stereo not shown) [Example 24, 4-(heptyloxy)-N-[4-[[2-hydroxy-3-(hydroxyamino)-2-methyl-3-oxopropyl]sulfonyl]phenyl]benzamide] | lower than could be measured in the assay | greater than could be measured in the assay | greater than could be measured in the assay
12 | 10.00 | < 5.00 | 8.92 | CCCc1ccc(C(=O)Nc2ccc(S(=O)(=O)CC(C)(O)C(=O)NO)cc2)cc1 (stereo not shown) [Example 26, N-[4-[[2-hydroxy-3-(hydroxyamino)-2-methyl-3-oxopropyl]-sulfonyl]phenyl]4-propylbenzamide] |  |  | 

Row | Compound | pIC50 (MMP-2) | pIC50 (recombinant human MMP-1) | pIC50 (recombinant human MMP-13) | inhibitory activity against MMP-1 (in words) (recombinant human MMP-1) | inhibitory activity against MMP-13 (in words) (recombinant human MMP-13) | inhibitory activity against MMP-2 (in words) (MMP-2; discussion of Table 51)
13 | CCCCOc1ccc(C(=O)Nc2ccc(S(=O)(=O)CC(C)(O)C(=O)NO)cc2)cc1 (stereo not shown) [Example 25, 4-butoxy-N-[4-[[2-hydroxy-3-(hydroxyamino)-2-methyl-3-oxopropyl]sulfonyl]phenyl]benzamide] | 9.70 | < 5.00 | 8.92 |  |  | 
